Assay results reported in article PMC3742835, “Powerful Inhibition of Experimental Human Pancreatic Cancers by Receptor Targeted Cytotoxic LH-RH analog AEZS-108” (Oncotarget, 2013).

Assays:
Panc-1 cancers [1] = test: Experiment 1: Panc-1 tumor growth in nude mice; type: in vivo, human (xenograft in nude mice); conditions: AN-152 6.9 μmol/kg, DOX 2.5 μmol/kg
Description: (§1) Control and treatment groups were then selected at random.
(§2) In Experiment 1, nude mice with Panc-1 tumors were treated iv. on days 1, 8. […] There were 8 animals in each group. The experiment was terminated on day 82.

SW-1990 cancers = test: Experiment 2: SW-1990 tumor growth in nude mice; type: in vivo, human (xenograft in nude mice); conditions: for Tumor volume (final): control 3464±838; for Tumor volume (final) / Tumor weights, solid tumor part: AN-152 and DOX P<0.05 vs. control; for Tumor weights, tumors with cysts: control 3729±921, AN-152 P<0.05 vs. control; for Tumor weights, solid tumor part: cut, fluid released, control 2473±636
Description: as §1
All compounds were administered iv.(at 6.9 μmol/kg) once weekly for 7 weeks. There were 10 animals per group. The experiment was terminated 65 days after the first treatment.

[2] = Experiment 1: body and organ weights of mice; type: in vivo; conditions: Experiment 1, nude mice with Panc-1; AN-152 6.9 μmol/kg, DOX 2.5 μmol/kg iv
Description: as §1, §2

[3] = Experiment 3: body and organ weights of mice; type: in vivo; conditions: Experiment 3, nude mice with CFPAC-1; iv
Excerpt: as §1

Panc-1 cancers [4] = test: Human Cancer Pathway Finder PCR Array, Panc-1 tumors; type: in vivo, human (xenograft in nude mice)
Excerpt: (§3) After isolating total RNA and protein from tumor samples from experiments 2, 3 and 4 by using the NucleoSpin kit (Macherey-Nagel, Bethlehem, PA, USA), the Human Cancer Pathway Finder Superarray and the Human Apoptosis RT Profiler PCR Array (Qiagen Inc. Valencia, CA, USA) were used to analyze 3 representative samples from each group for mRNA levels of genes related to cell adhesion, apoptosis, cell cycle, angiogenesis, signal transduction, invasion and metastasis. Quality control of RNA samples, synthesis of cDNA and RT-PCR arrays were performed as described. Gene expression data were examined using Excel based PCR Array Data Analysis Software provided by Qiagen; fold-changes in gene expression were calculated using the ΔΔCt method and five housekeeping genes (B2M, HPRT1, RPL13A, GAPDH, and ACTB) were used for normalization of the results.

SW-1990 tumors [5] = test: Human Cancer Pathway Finder PCR Array, SW-1990 tumors; type: in vivo, human (xenograft in nude mice)
Excerpt: as §3

CFPAC-1 cancers [6] = test: Human Cancer Pathway Finder PCR Array, CFPAC-1 tumors; type: in vivo, human (xenograft in nude mice)
Excerpt: as §3

[7] = system: three tumor lines (Panc-1, SW-1990, CFPAC-1); test: Human Cancer Pathway Finder PCR Array, three tumor lines together; type: in vivo, human (xenograft in nude mice)
Excerpt: as §3

Panc-1 cancers [8] = test: Human Apoptosis RT Profiler PCR Array, Panc-1; type: in vivo, human (xenograft in nude mice)
Excerpt: as §3

SW-1990 tumors [9] = test: Human Apoptosis RT Profiler PCR Array, SW-1990; type: in vivo, human (xenograft in nude mice)
Excerpt: as §3

CFPAC-1 cancers [10] = test: Human Apoptosis RT Profiler PCR Array, CFPAC-1; type: in vivo, human (xenograft in nude mice)
Excerpt: as §3

CFPAC-1 cancers [11] = test: Experiment 3: CFPAC-1 tumor growth in nude mice
Description: Chemicals, unless stated otherwise, were purchased from Sigma (St. Louis, MO).
Female athymic nude mice (Ncr nu/nu) were obtained from the National Cancer Institute (Frederick Cancer Research and Development Center, Frederick, MD), Charles River Laboratories International, Inc. (Durham, NC) and Harlan Laboratories (Tampa, FL) and maintained under pathogen-limited conditions. […] To produce tumor donor animals, 10^6 cells of each line were injected subcutaneously into 3 nude mice and grown until well-developed tumors were grown. The resulting tumors were removed, minced and 2 mm^3 pieces of tumor tissue were transplanted subcutaneously into each flank area of the experimental nude mice. When the tumors became measurable, the mice were divided into groups with nearly equal average tumor sizes. Control and treatment groups were then selected at random.
The compounds were given iv. on days 1, 5, 8, 12, 15 and 30. There were 8 animals per group, and the experiment lasted to the 61st day of the treatment period.
One-way ANOVA (Sigmaplot-11 software; Jandel Scientific, San Raphael, CA) was used for statistical evaluation of the data, and the groups were compared using Dunnett's method.

[12] = system: advanced pancreatic cancers; conditions: cited from earlier work
Excerpt: Pancreatic carcinoma is the 9th most common human cancer in the Western world, including the USA, but it is the fourth leading cause of cancer death in both males and females. Its incidence has increased in the white population by about 1% per year between 1999 through 2008. Ductal carcinomas of the pancreas are very aggressive tumors, and because of the concealed location of the gland, they are mostly detected in late stages of development when surgical removal is not useful. Thus, the 5-year survival rate is below 5% and the median survival time after diagnosis is less than 6 mo ...

[13] = system: nitrosamine-induced pancreatic cancers; conditions: hamsters; cited from earlier work
Excerpt: Receptors for various peptide hormones are present in pancreatic cancers and these receptors can be utilized for both diagnostic and therapeutic purposes.. […] [15, 21] however, their function and importance is still unclear. The combined detection of mRNA for both LH-RH and LH-RH receptor in rat pancreatic cancer lines raised the possibility of an autocrine/paracrine role of LH-RH in these tumors. The findings that both estrogen and androgen receptors are likewise expressed in pancreati ...

[14] = system: binding sites for LH-RH in nitrosamine-induced pancreatic cancers in hamsters; design: method as in PMID 15350601; conditions: cited from earlier work
[15] = SW-1990, 6.9 μmol/kg iv once weekly for 7 weeks, 10 animals/group, day 65, means ± SE

## COc1cccc2c1C(=O)c1c(O)c3c(c(O)c1C2=O)C[C@@](O)(C(=O)CO)C[C@@H]3O[C@H]1C[C@H](N)[C@H](O)[C@H](C)O1 [DOX, doxorubicin]
Panc-1 cancers [1]; Panc-1, iv days 1, 8, 15, 22, 33, 61, 8 animals/group, day 82, means ± SE, control 2040±1357, AN-152 P<0.05 vs. control
  Tumor volume (final): 849±363 mm3
Panc-1 cancers [1]; Panc-1 in nude mice, iv
  Growth inhibition (in words): only a moderate but not significant inhibitory effect
SW-1990 cancers; SW-1990, 6.9 μmol/kg iv once weekly for 7 weeks
  Solid tumor weights (in words): reduced
SW-1990 cancers; [15]
  Tumor volume (final): 1213±381a mm3
  Tumor weights, tumors with cysts: 1496 ± 466 mg
  Tumor weights, solid tumor part: 585 ± 141 mg
SW-1990 cancers; SW-1990 in nude mice
  Growth inhibition (in words): inhibitory effect on growth
[2]
  Effect on body and organ weights: Neither treatment had an effect on body and organ weights of the mice
[3]
  Body weights: the lowest in the group receiving DOX, but the differences from control were statistically not significant
  Ovarian weights: reduced
Panc-1 cancers [4]
  Expression of cell cycle control and DNA damage repair genes: altered in both directions
Panc-1 cancers [4]; treated vs control tumors
  Expression of genes associated with adhesion: decreased
SW-1990 tumors [5]
  Expression of cell cycle control and DNA damage repair genes: altered in both directions
SW-1990 tumors [5]; treated vs control tumors
  Expression of genes associated with adhesion: changed in both directions
CFPAC-1 cancers [6]
  Expression of cell cycle control and DNA damage repair genes: only decreases
CFPAC-1 cancers [6]; treated vs control tumors
  Expression of genes associated with adhesion: decreased
[7]; all three tumor lines, treated vs control tumors
  Expression of genes related to invasion and metastasis: causing the stronger increases
[7]; three tumor lines
  TIMP3 expression: strongly increased
[7]; three tumor lines, treated vs control tumors
  Expression of genes related to signal transduction molecules and transcription factors: caused considerable increases or decreases in some
[7]; three tumors, Cancer Pathway Finder array
  Expression of apoptosis-associated genes: variable in the three tumors after both treatments
Panc-1 cancers [8]
  Expression of anti-apoptotic genes: mostly increased
Panc-1 cancers [8]; several genes
  Expression of pro-apoptotic genes: increased
SW-1990 tumors [9]
  Expression of anti-apoptotic genes: mostly increased
SW-1990 tumors [9]; several genes
  Expression of pro-apoptotic genes: changed in both directions
CFPAC-1 cancers [10]
  Expression of anti-apoptotic genes: decreased
CFPAC-1 cancers [10]; several genes
  Expression of pro-apoptotic genes: decreased
CFPAC-1 cancers [11]; iv days 1, 5, 8, 12, 15 and 30
  Tumor volume (in words): moderate but not significant decrease
CFPAC-1 cancers [11]; iv days 1, 5, 8, 12, 15 and 30, 8 animals/group, day 61, means ± SE, control 2502±769, AN-152 P<0.05 vs. control
  Tumor volume (final): 1063±518 mm3

## Nc1ccn([C@@H]2O[C@H](CO)[C@@H](O)C2(F)F)c(=O)n1 [gemcitabine]
[12]; gemcitabine alone or in combination with 5-fluorouracil, radiation or erlotinib, advanced pancreatic cancers
  Clinical efficacy: minimal palliation

## D-Trp^6LH-RH
SW-1990 cancers; SW-1990, 6.9 μmol/kg iv once weekly for 7 weeks, 10 animals/group, day 65, means ± SE, control 1.56±0.12, AN-152 P<0.05 vs. all other groups
  Cystic/solid tumor (weight ratio): 1.56±0.11
SW-1990 cancers; [15]
  Tumor volume (final): 2791±646 mm3
  Tumor weights, tumors with cysts: 3107 ± 696 mg
  Tumor weights, solid tumor part: 1862 ± 361 mg
[13]
  Growth inhibition of nitrosamine-induced pancreatic cancers: inhibits growth

## FOLFIRINOX
[12]; human, in vivo
  Toxicity: highly toxic

## LH-RH: hypothalamic peptide hormone
[14]
  Affinity of binding sites for LH-RH: moderate-affinity

## cetrorelix
[13]
  Growth inhibition of nitrosamine-induced pancreatic cancers: inhibits growth
